Article PMC12920294, “Optimizing uPAR-targeting radiopeptides for improved tissue distribution: progress towards radionuclide therapy” (European Journal of Nuclear Medicine and Molecular Imaging, 2025)
Like-named read-outs stand apart in the source and are kept apart here.

Legend:
[1] = assay type: in vitro ADME; conditions: 1 µM
Method: The ^177Lu-labeled peptides (50 MBq/nmol) were incubated in mouse or human blood plasma (10 MBq/200 µL) over an incubation period of 24 h at 37 °C. Aliquots and control samples of the radiopeptides diluted in saline were analyzed after 1 h, 4 h and 24 h using thin layer chromatography (TLC) as previously reported (Supplementary Material). The distribution coefficients (logD values) of the ^177Lu-labeled peptides (50 MBq/nmol) were determined using a shake-flask method according to a previously published procedure (Supplementary Material).
Methods: A sample of each radiopeptide (50 MBq/nmol) was added to mouse blood plasma (Lot: 32321, Rockland Immunochemicals Inc., USA) or to human blood plasma (Stiftung Blutspende SRK Aargau-Solothurn, Switzerland) to obtain an activity concentration of 10 MBq/200 µL. The test samples were incubated at 37 °C for up to 24 h. Control samples referred to the radiopeptides which were instead diluted in saline at an activity concentration of 10 MBq/200 µL. Aliquots of each sample (2 µL, ~100 kBq) were taken after 1 h, 4 h and 24 h and investigated by means of thin layer chromatography (TLC). The employed method involved reversed-phase TLC plates (MERCK Analytical Chromatography, TLC Silica gel 60 RP-18 F254s) as stationary phase and ACN/citrate buffer (3:7; v/v; pH 5.5) as mobile phase. After the eluent reached the front line, the TLC plates were dried and exposed to a phosphor screen (Super resolution screen PSR10450013, PerkinElmer) for 1 min. The respective screen was developed using a storage phosphor system (Cyclone Plus, PerkinElmer) and analyzed using the OptiQuant Software (version 5.0, Bright Instrument Co Ltd., PerkinElmer).

[2] = in vivo; conditions: CD1 nude, mouse, 0.5 nmol/mouse, total radioactivity
[3] = molecular target: T1, human uPAR (Homo sapiens, UniProt Q03405); assay: uPAR-binding affinity, saturation binding on HEK-uPAR cells; conditions: 4 °C
T1 construct: host or cells: HEK cells transfected with human uPAR (HEK-uPAR)
T1 sequence (Q03405 23-335): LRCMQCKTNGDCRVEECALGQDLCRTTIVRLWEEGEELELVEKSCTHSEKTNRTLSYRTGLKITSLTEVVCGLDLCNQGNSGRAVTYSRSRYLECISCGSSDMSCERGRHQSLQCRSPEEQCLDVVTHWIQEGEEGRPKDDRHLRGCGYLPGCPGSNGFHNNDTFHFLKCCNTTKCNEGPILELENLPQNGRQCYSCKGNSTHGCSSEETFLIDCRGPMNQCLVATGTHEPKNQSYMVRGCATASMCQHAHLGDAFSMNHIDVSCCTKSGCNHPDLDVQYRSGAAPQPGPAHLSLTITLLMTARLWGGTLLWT
Method: To determine the uPAR-binding affinity of the radiopeptides, saturation binding experiments were performed according to a previously published procedure using HEK-uPAR cells in 48-well plates (Supplementary Material). The assay was performed on ice (at 4 °C) to prevent target internalization upon binding of the radiopeptides. The cells were incubated with the radiopeptides in the presence or absence of excess AE105 (40 µM) together with the respective radiopeptides at concentrations ranging between 1 nM and 1600 nM. After removal of the supernatant, the HEK-uPAR cells were rinsed and lysed to be measured using a γ-counter (Wallac Wizard 1480, PerkinElmer). The KD values were determined by plotting the specific binding (values of cell samples incubated without AE105 minus the respective values of samples incubated with AE105) against the molar concentration of the added peptide. A nonlinear regression analysis was performed using GraphPad Prism software (version 10.1.1). The results are reported as average of KD values ± SD of n = 3 independent experiments. Methods: HEK-uPAR cells were seeded in poly-D-lysine-coated 48-well plates (0.25 × 10^6 in 0.5 mL per well) using DMEM culture medium with supplements. The cells were incubated at 37 °C and 5% CO2 overnight to allow adhesion and growth. The well plates with HEK-uPAR cells were placed on ice for the entire experiment to prevent internalization of the radiopeptides. After removal of the medium, the HEK-uPAR cells were rinsed with cold PBS (0.5 mL, pH 7.4) followed by the addition of DMEM culture medium without supplements (450 µL/well) in the presence or absence of AE105 (final concentration 40 µM) as a receptor blocking agent. The cells were incubated for 30 min on ice. The respective radiopeptides (5 MBq/nmol) were diluted in PBS at peptide concentrations 10‒16000 nM. A volume of 50 µL from each dilution was added to each well to obtain peptide concentrations in the range of […]. The assay was performed at 4 °C on ice, to prevent internalization of the radiopeptides. The radiopeptides were incubated on cells for 1 h on a shaker before rinsing twice with PBS (0.5 mL, pH 7.4). Increasing ligand concentrations were used to approximate saturation of the binding sites (Bmax value) at equilibrium. Ligand depletion effects of the ligand concentration in the supernatant of the cell samples were not taken into account. The cells were lysed using an aqueous NaOH solution (1 M, 600 µL) and the lysates were transferred to radioimmunoassay tubes for counting the activity in a γ-counter (Wallac Wizard 1480, PerkinElmer). The KD values were determined by plotting the specific binding (total binding minus unspecific binding) against the molar concentration of the added radiopeptide using GraphPad Prism software (version 10.1.1). The results were then expressed as average ± SD of n = 3 independent experiments.

Cc1ccc(CCCC(=O)NCCOCCOCCOCCOCCC(=O)NCCCC[C@H](NC(=O)CN2CCN(CC(=O)O)CCN(CC(=O)O)CCN(CC(=O)O)CC2)C(=O)N[C@@H](CC(=O)O)C(=O)N[C@@H](CC2CCCCC2)C(=O)N[C@@H](Cc2ccccc2)C(=O)N[C@H](CO)C(=O)N[C@H](CCCNC(=N)N)C(=O)N[C@@H](Cc2ccc(O)cc2)C(=O)N[C@@H](CC(C)C)C(=O)N[C@@H](Cc2c[nH]c3ccccc23)C(=O)N[C@@H](CO)C(N)=O)cc1 [[^177Lu]Lu-uPAR-11, metal not drawn]
Human blood plasma stability, intact radiopeptide ([1]; 1 h): 99 ± 1%
Mouse blood plasma stability, intact radiopeptide ([1]; 1 h): 99 ± 1%
Human blood plasma stability, intact radiopeptide ([1]; 4 h): 99 ± 1%
Mouse blood plasma stability, intact radiopeptide ([1]; 4 h): 99 ± 1%
Human blood plasma stability, intact radiopeptide ([1]; 24 h): 95 ± 1%
Mouse blood plasma stability, intact radiopeptide ([1]; 24 h): 95 ± 1%
tissue uptake at 1 h ([2]; Blood uptake): 13 ± 2 %ID/g
tissue uptake at 4 h ([2]; Blood uptake): 5 ± 0.6 %ID/g
tissue uptake at 24 h ([2]; Blood uptake): < 0.03 %ID/g
tissue uptake at 48 h ([2]; Blood uptake): < 0.03 %ID/g
tissue uptake at 1 h ([2]; Bone uptake): 1.7 ± 0.4 %ID/g
tissue uptake at 4 h ([2]; Bone uptake): 0.73 ± 0.06 %ID/g
tissue uptake at 24 h ([2]; Bone uptake): 0.19 ± 0.03 %ID/g
tissue uptake at 48 h ([2]; Bone uptake): 0.11 ± 0.02 %ID/g
tissue uptake at 1 h ([2]; Brain uptake): 0.28 ± 0.03 %ID/g
tissue uptake at 4 h ([2]; Brain uptake): 0.12 ± 0.23 %ID/g
tissue uptake at 24 h ([2]; Brain uptake): < 0.03 %ID/g
tissue uptake at 48 h ([2]; Brain uptake): < 0.03 %ID/g
tissue uptake at 1 h ([2]; HEK-uPAR xenograft uptake): 13 ± 2 %ID/g
tissue uptake at 4 h ([2]; HEK-uPAR xenograft uptake): 16 ± 2 %ID/g
tissue uptake at 24 h ([2]; HEK-uPAR xenograft uptake): 7.9 ± 0.9 %ID/g
tissue uptake at 48 h ([2]; HEK-uPAR xenograft uptake): 5.3 ± 0.7 %ID/g
tissue uptake at 1 h ([2]; Heart uptake): 4.9 ± 0.3 %ID/g
tissue uptake at 4 h ([2]; Heart uptake): 1.8 ± 0.2 %ID/g
tissue uptake at 24 h ([2]; Heart uptake): 0.12 ± 0.02 %ID/g
tissue uptake at 48 h ([2]; Heart uptake): 0.08 ± 0.01 %ID/g
tissue uptake at 1 h ([2]; Intestines uptake): 1.8 ± 0.2 %ID/g
tissue uptake at 4 h ([2]; Intestines uptake): 0.93 ± 0.11 %ID/g
tissue uptake at 24 h ([2]; Intestines uptake): 0.19 ± 0.01 %ID/g
tissue uptake at 48 h ([2]; Intestines uptake): 0.14 ± 0.03 %ID/g
tissue uptake at 1 h ([2]; Kidneys uptake): 6.8 ± 0.9 %ID/g
tissue uptake at 4 h ([2]; Kidneys uptake): 4 ± 0.4 %ID/g
tissue uptake at 24 h ([2]; Kidneys uptake): 1.3 to 1.7 %ID/g
tissue uptake at 48 h ([2]; Kidneys uptake): 1.1 ± 0.1 %ID/g
tissue uptake at 1 h ([2]; Liver uptake): 4.5 ± 0.3 %ID/g
tissue uptake at 4 h ([2]; Liver uptake): 1.8 ± 0.2 %ID/g
tissue uptake at 24 h ([2]; Liver uptake): 0.33 ± 0.03 %ID/g
tissue uptake at 48 h ([2]; Liver uptake): 0.25 ± 0.02 %ID/g
tissue uptake at 1 h ([2]; Lung uptake): 7 ± 1.3 %ID/g
tissue uptake at 4 h ([2]; Lung uptake): 3.1 ± 0.2 %ID/g
tissue uptake at 24 h ([2]; Lung uptake): 0.29 ± 0.08 %ID/g
tissue uptake at 48 h ([2]; Lung uptake): 0.17 ± 0.02 %ID/g
tissue uptake at 1 h ([2]; Muscle uptake): 1.4 ± 0.3 %ID/g
tissue uptake at 4 h ([2]; Muscle uptake): 0.63 ± 0.09 %ID/g
tissue uptake at 24 h ([2]; Muscle uptake): 0.05 %ID/g
tissue uptake at 48 h ([2]; Muscle uptake): 0.04 ± 0.01 %ID/g
tissue uptake at 1 h ([2]; Pancreas uptake): 1.7 ± 0.2 %ID/g
tissue uptake at 4 h ([2]; Pancreas uptake): 0.69 ± 0.05 %ID/g
tissue uptake at 24 h ([2]; Pancreas uptake): 0.09 ± 0.02 %ID/g
tissue uptake at 48 h ([2]; Pancreas uptake): 0.07 ± 0.02 %ID/g
tissue uptake at 1 h ([2]; Salivary glands uptake): 2.9 ± 0.5 %ID/g
tissue uptake at 4 h ([2]; Salivary glands uptake): 1.3 ± 0.2 %ID/g
tissue uptake at 24 h ([2]; Salivary glands uptake): 0.17 ± 0.02 %ID/g
tissue uptake at 48 h ([2]; Salivary glands uptake): 0.18 ± 0.04 %ID/g
tissue uptake at 1 h ([2]; Spleen uptake): 2.2 ± 0.3 %ID/g
tissue uptake at 4 h ([2]; Spleen uptake): 1.1 ± 0.1 %ID/g
tissue uptake at 24 h ([2]; Spleen uptake): 0.49 ± 0.05 %ID/g
tissue uptake at 48 h ([2]; Spleen uptake): 0.37 ± 0.05 %ID/g
tissue uptake at 1 h ([2]; Stomach uptake): 1.8 ± 0.5 %ID/g
tissue uptake at 4 h ([2]; Stomach uptake): 0.75 ± 0.19 %ID/g
tissue uptake at 24 h ([2]; Stomach uptake): 0.12 ± 0.01 %ID/g
tissue uptake at 48 h ([2]; Stomach uptake): 0.09 %ID/g
Kd [3]: 37 ± 11 nM
